Assays:
rabbits = experiment: Rabbit dexamethasone acetate induced IOP elevation, topical ocular anecortave acetate; type: in vivo; settings: for IOP change versus vehicle treated group: topical ocular three times a day for 2 weeks, rabbits on weekly subTenon's dexamethasone acetate 1 mg/kg, FIG. 2
Method: Three groups of rabbits received weekly subTenon's injections of dexamnethasone acetate (1 mg/kg) for 4 weeks. After two weeks, the IOPs of all three groups measured approximately […]. The rabbits were then treated with vehicle, 0.1% anecortave acetate, a 1% anecortave acetate by topical ocular dosing three times a day for the remaining 2 weeks. The IOP continued to increase in the vehicle treated group.

[1] = test system: patients with documented glucocorticoid induced ocular hypertension; experiment: Topical anecortave acetate in patients with glucocorticoid induced ocular hypertension (IOP); type: in vivo, human; settings: patients (n=15), 1% eye drops topically three times per day for up to 12 weeks, glucocorticoid medication continued; reduced from 29 mm Hg; FIG. 1
Method: Patients (η=15) with documented glucocorticoid induced ocular hypertension were treated topically with 1% anecortave acetate eye drips three times per day for up to 12 weeks. The patients continued to receive their glucocorticoid medication.

Compound	IOP change versus vehicle treated group (rabbits; 0.1% anecortave acetate)	IOP change versus vehicle treated group (rabbits; 1% anecortave acetate)	IOP after anecortave acetate treatment [1]	IOP after two weeks of glucocorticoid injections (rabbits; rabbits, weekly subTenon's injections 1 mg/kg, after two weeks, all three groups)
CC(=O)OCC(=O)[C@@]1(O)CC[C@H]2[C@@H]3CCC4=CC(=O)CC[C@]4(C)C3=CC[C@@]21C [anecortave acetate, 4,9(11)-pregnadien-17α,21-diol-3,20dione-21-acetate]	significantly lowered	significantly lowered	19-22 mm Hg	
CC(=O)OCC(=O)[C@@]1(O)[C@H](C)C[C@H]2[C@@H]3CCC4=CC(=O)C=C[C@]4(C)[C@@]3(F)[C@@H](O)C[C@@]21C [dexamnethasone acetate, dexamethasone acetate, reference compound]				approximately 5 mm Hg
